Source: US20050261319A1, “Novel 2-amino-4-quinazolinones and 2-amino-4-oxoquinazolones as LXR nuclear receptor binding compounds with partial agonistic properties” (priority 2002, published 2005)

Tested on: THP-1 macrophages
Assay: Cholesterol efflux from differentiated THP-1 macrophages
Format: cell-based
Conditions: ApoA1, 10 uM, 24 h
Protocol: Methods: Cultures of the monocyte-macrophage cell line and the hepatocytes HepG2 are obtained from the American Type tissue Culture Collection, Rockville, Md. and were grown in RPMI 1640 medium supplemented with 10% fetal bovine serum, 10 mM HEPES, 2 mM pyruvate, 50 uM (3-Mercaptoethanol (THP-1) and Minimum essential medium (Eagle) with 2 mM L-glutamine and Earle's BSS supplemented with 10% fetal bovine serum, 2 mM glutamin, 0.1 mM non-essential amino acids, 1 mM sodium pyruvate (HepG2), respectively, at 37° C. in 5% CO2. THP-1 cells are differentiated into macrophages by addition of 100 nM Phorbol 12-Myristate 13-Acetate (PMA; Sigma P8139) and PMA included in the medium of all subsequent experiments to maintain differentiation. For cholesterol efflux measurements and triglyceride analysis cells are seeded in 6 well plates at 1.8×10^6 cells (THP-1) and 1×10^6 cells (HepG2) per well, respectively. CHOLESTEROL EFFLUX THP-1 cells are seeded in 6 well plates at 1×10^6 cells per well in RPMI 1640 medium containing 10% FCS and 100 nM TPA for 72 h. After washing with PBS cells are incubated 24 h with fresh in RPMI 1640 medium containing 10% FCS and 100 nM TPA. […] Medium is collected, centrifuged to remove cell debris and assayed for cholesterol using a commercial fluorometric kit (Molecular Probes A-12216). The remaining cellular proteins are lysed with 0.3 NNaOH and protein content measured with the Biorad Bradford reagent. THP-1 (1×10^6 cells per dish) cells were seeded in 6 well dishes in 3 ml modified RPMI 1640 medium (ATTC, Cat. […] After incubation for 24 hours, total cholesterol was determined from cell supernatant in each of the wells using an enzymatic assay with fluorescence read-out for the determination of cholesterol (Amplex Red Cholesterol Assay Kit (A-12213). The fluorescence readout per mg of total protein content as determined from cells that were present in the respective well are shown in FIGS. 9 or 11 as an example.

C=CCn1c(N2[C@@H]3CC(C)(C)C[C@@]2(C)C3)nc2cccc(F)c2c1=O [formula (12)]
cholesterol export: marked increase

C=CCn1c(N2C3CC(C)(C)CC2(C)C3)nc2ccc(I)cc2c1=O (stereo not shown) [formula (9)]
cholesterol export: marked increase

CC(C)n1c(N2C3CC(C)(C)CC2(C)C3)nc2ccc(I)cc2c1=O (stereo not shown) [formula (10)]
cholesterol export: marked increase

CCCn1c(N2[C@@H]3CC(C)(C)C[C@@]2(C)C3)nc2cccc(F)c2c1=O [formula (11)]
cholesterol export: marked increase
